Results from patent publication US12630536B2, “Cyanotriazine derivative, preparation method therefor, and application thereof” (Chengdu Fanxi Biopharma Co., LTD., priority 2020, dated 2026).

Assays:
[1] = system: TR alpha-UAS-bla HEK 293T Cells; test: TR cell-based agonist detection, β-lactamase reporter (LiveBLAzer FRET B/G), TR alpha; conditions: Homo sapiens
Method: (§1) A method for testing a THR-α/β activation activity of a compound by an in-vitro cell level was as follows.
(§2) Compounds were transferred to a 384-well plate by an ECHO liquid workstation, and each compound was diluted by 3 times with 10 gradient concentrations, which was in triplicate. 1.5×10^4 DMEM-cultured cells (TR beta-UAS-bla HEK 293T Cells) or 1.0×10^4 TR alpha-UAS-bla HEK 293T Cells were placed in the 384-well plate. HEK 293T-TR beta was incubated in an incubator for 16 hours, and HEK 293T-TR alpha was incubated in an incubator for 24 hours. A LiveBLAzer™-FRET B/G (CCF4-AM) substrate was added into the cell plate to detect expression of β-lactamase in cells, and under excitation of 409 nm, a product produced fluorescence with a wavelength of 447 nm. When the β-lactamase was not expressed, under excitation of 409 nm, fluorescence with a wavelength of 520 nm was directly produced through FRET. Combination between the compound and the protein was determined by detecting a ratio of the two kinds of fluorescence (blue/green, 460 nm/530 nm), thus calculating EC50 of the compound. […] Calculation of a factor Z (greater than 0.5) would be used for monitoring a stability of each experiment.

[2] = system: TR beta-UAS-bla HEK 293T Cells; test: TR cell-based agonist detection, β-lactamase reporter (LiveBLAzer FRET B/G), TR beta
Method: as §1, §2

[3] = system: golden hamsters fed with high-fat feedstuffs (hyperlipidemia model); test: In-vivo pharmacodynamic test, high-fat feed hyperlipidemia model; conditions: oral once per day, 4 weeks
Method: Administration mode: oral administration was carried out once per day with a time interval of 24 hours for 4 consecutive weeks. During the experiment, the animals were weighed twice per week, and a remaining amount and an adding amount of the feedstuffs were recorded before each blood sampling detection for calculating a food intake of each group of animals during administration.
The food utilization rate represents a weight gain in gram of an animal taking per 100 g of feedstuffs, so that food utilization rate=weight gain (g)/food intake (100 g)×100%.

Structure (SMILES): CC(C)c1cc(Oc2c(Cl)cc(-n3nc(C#N)c(=O)[nH]c3=O)cc2Cl)n[nH]c1=O [MGL3196, reference compound]
- Emax ([1]; HEK-293T, 24 h, TR_cell-based agonist, TR_α, read-out: Maximum activity ratio): 134%
- EC50 ([1]; Detection of TR_cell-based agonist, HEK 293T-TR alpha, 24 hours, read-out: TR_α_EC50): 2770 nM
- Emax ([2]; Homo sapiens, HEK-293T, 16 h, TR_cell-based agonist, TR_β, read-out: Maximum activity ratio (A460/A530)): 37.7%
- EC50 ([2]; Homo sapiens, Detection of TR_cell-based agonist, HEK 293T-TR beta, 16 hours, read-out: TR_β_EC50): 1050 nM
- α/β ([2]; TR_cell-based agonist, ratio TR_α EC50 / TR_β EC50): 2.62
- food utilization rate (weight gain (g)/food intake (100 g)×100%) [3]: increased to some extent
